“And” between values parts separate entries of the source, which are not always exact repeats. Equal values may be shown once. Numbers after ± are expanded uncertainties.
Settings: Crystal, Calculated from knudsen effusion weight loss

Cn1cc(F)c(=O)n(C)c1=O [2,4(1H,3H)-pyrimidinedione, 5-fluoro-1,3-dimethyl-]
vapor or sublimation pressure (317.18 K): 8.39e-05 ± 8.9e-06 kPa and 8.8e-05 ± 9.3e-06 kPa and 8.46e-05 ± 9e-06 kPa | vapor or sublimation pressure (319.21 K): 0.0001113 ± 1.2e-05 kPa and 0.0001195 ± 1.3e-05 kPa and 0.0001105 ± 1.2e-05 kPa | vapor or sublimation pressure (321.12 K): 0.0001414 ± 1.5e-05 kPa and 0.0001372 ± 1.5e-05 kPa and 0.000135 ± 1.4e-05 kPa | vapor or sublimation pressure (323.18 K): 0.0001684 ± 1.8e-05 kPa and 0.0001645 ± 1.7e-05 kPa and 0.0001712 ± 1.8e-05 kPa | vapor or sublimation pressure (325.22 K): 0.00021 ± 2.2e-05 kPa and 0.0002051 ± 2.2e-05 kPa and 0.0002013 ± 2.1e-05 kPa | vapor or sublimation pressure (327.13 K): 0.0002547 ± 2.7e-05 kPa and 0.0002583 ± 2.7e-05 kPa and 0.0002608 ± 2.8e-05 kPa | vapor or sublimation pressure (329.18 K): 0.0003128 ± 3.3e-05 kPa and 0.0003165 ± 3.4e-05 kPa and 0.000333 ± 3.5e-05 kPa | vapor or sublimation pressure (331.22 K): 0.0004074 ± 4.3e-05 kPa and 0.0004027 ± 4.3e-05 kPa and 0.0004159 ± 4.4e-05 kPa | vapor or sublimation pressure (333.12 K): 0.0005058 ± 5.4e-05 kPa and 0.0004953 ± 5.3e-05 kPa and 0.0005012 ± 5.3e-05 kPa | vapor or sublimation pressure (335.17 K): 0.0006116 ± 6.5e-05 kPa and 0.0006003 ± 6.4e-05 kPa and 0.0006128 ± 6.5e-05 kPa | vapor or sublimation pressure (337.24 K): 0.0007507 ± 8e-05 kPa and 0.0007652 ± 8.1e-05 kPa and 0.0007436 ± 7.9e-05 kPa | vapor or sublimation pressure (339.14 K): 0.0009104 ± 9.7e-05 kPa and 0.0009266 ± 9.8e-05 kPa and 0.0009283 ± 9.8e-05 kPa

O=c1[nH]cc(F)c(=O)[nH]1 [5-fluoro-2,4(1H,3H)-pyrimidinedione]
vapor or sublimation pressure (411.14 K): 0.000178 ± 1.9e-05 kPa and 0.000166 ± 1.8e-05 kPa and 0.000165 ± 1.8e-05 kPa | vapor or sublimation pressure (413.1 K): 0.000207 ± 2.2e-05 kPa and 0.000197 ± 2.1e-05 kPa and 0.000198 ± 2.1e-05 kPa | vapor or sublimation pressure (415.14 K): 0.000239 ± 2.5e-05 kPa and 0.000235 ± 2.5e-05 kPa and 0.000246 ± 2.6e-05 kPa | vapor or sublimation pressure (417.14 K): 0.000261 ± 2.8e-05 kPa and 0.000283 ± 3e-05 kPa and 0.000278 ± 2.9e-05 kPa | vapor or sublimation pressure (419.14 K): 0.000347 ± 3.7e-05 kPa and 0.000332 ± 3.5e-05 kPa and 0.000351 ± 3.7e-05 kPa | vapor or sublimation pressure (421.18 K): 0.000418 ± 4.4e-05 kPa and 0.000401 ± 4.3e-05 kPa and 0.000406 ± 4.3e-05 kPa | vapor or sublimation pressure (423.16 K): 0.000477 ± 5.1e-05 kPa and 0.000472 ± 5e-05 kPa and 0.000474 ± 5e-05 kPa | vapor or sublimation pressure (425.11 K): 0.000588 ± 6.2e-05 kPa and 0.000561 ± 6e-05 kPa and 0.00058 ± 6.2e-05 kPa | vapor or sublimation pressure (427.16 K): 0.000669 ± 7.1e-05 kPa and 0.000668 ± 7.1e-05 kPa | vapor or sublimation pressure (429.15 K): 0.000836 ± 8.9e-05 kPa and 0.000794 ± 8.4e-05 kPa and 0.000829 ± 8.8e-05 kPa | vapor or sublimation pressure (431.11 K): 0.001027 ± 0.00013 kPa and 0.001013 ± 0.00012 kPa and 0.000961 ± 0.0001 kPa | vapor or sublimation pressure (433.17 K): 0.001185 ± 0.00015 kPa and 0.001148 ± 0.00014 kPa and 0.001135 ± 0.00014 kPa
